Data from PubChem BioAssay (NCI).
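Dose response: 5 concentrations. Exposure: 48 h. Format: 96-well plates. Endpoint: linear interpolation; highest concentration if not reached. Definition used: TGI = concentration required for complete inhibition of growth.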

Experiments:
Assay in all cases: NCI-60 cell line screen, 48 h
OVCAR-5 ovarian = system: OVCAR-5 ovarian
SF-295 CNS = system: SF-295 CNS
OVCAR-3 ovarian = system: OVCAR-3 ovarian
CCRF-CEM leukemia = system: CCRF-CEM leukemia
DU-145 prostate = system: DU-145 prostate
NCI-H23 lung = system: NCI-H23 lung
HCT-116 colon = system: HCT-116 colon
SF-539 CNS = system: SF-539 CNS
KM12 colon = system: KM12 colon
SN12C renal = system: SN12C renal
PC-3 prostate = system: PC-3 prostate
UACC-62 melanoma = system: UACC-62 melanoma
CAKI-1 renal = system: CAKI-1 renal
SNB-19 CNS = system: SNB-19 CNS
OVCAR-4 ovarian = system: OVCAR-4 ovarian
RXF 393 renal = system: RXF 393 renal
NCI-H522 lung = system: NCI-H522 lung

Structure (SMILES) | TGI (OVCAR-5 ovarian) [µM] | TGI (SF-295 CNS) [µM] | TGI (OVCAR-3 ovarian) [µM] | TGI (CCRF-CEM leukemia) [µM] | TGI (DU-145 prostate) [µM] | TGI (NCI-H23 lung) [µM] | TGI (HCT-116 colon) [µM] | TGI (SF-539 CNS) [µM] | TGI (KM12 colon) [µM] | TGI (SN12C renal) [µM] | TGI (PC-3 prostate) [µM] | TGI (UACC-62 melanoma) [µM] | TGI (CAKI-1 renal) [µM] | TGI (SNB-19 CNS) [µM] | TGI (OVCAR-4 ovarian) [µM] | TGI (RXF 393 renal) [µM] | TGI (NCI-H522 lung) [µM]
COC(=O)C1=C(C)NC(C)=C(C(=O)OC)C1c1nc2sccn2c1[N+](=O)[O-] | > 100 | > 100 | > 100 | > 100 | > 100 | > 100 | > 100 | > 100 | > 100 | > 100 | > 100 | > 100 | > 100 | > 100 | > 100 | > 100 | 
COc1ccc(N2C(=O)CSC2c2c[nH]c3ccccc23)cc1 (configuration not stated) | > 100 | > 100 | > 100 | > 100 | > 100 | > 100 | > 100 |  | > 100 | > 100 | > 100 | > 100 |  | > 100 | > 100 | > 100 | 84.9
C=CCOc1ccc(C2(O)c3ccccc3C3=NCCCN32)cc1 (configuration not stated) | > 100 | > 100 | > 100 | > 100 | > 100 | > 100 | > 100 | > 100 | > 100 | > 100 | > 100 | > 57 | > 100 | > 100 | > 100 |  | > 100
COc1ccc2c(c1)CCN1CCc3ccccc3CC21 (configuration not stated) | > 100 | 56.1 | > 100 | > 100 | > 100 | > 100 | > 100 | > 100 | > 100 | > 100 | > 100 | > 100 | > 100 | > 100 | > 100 |  | > 100
CCC(=O)ONC(=O)Cn1ccc([N+](=O)[O-])n1 | > 100 | > 100 | > 100 | > 100 | > 100 | > 100 | > 100 | > 100 | > 100 | > 100 | > 100 | > 100 | > 100 | > 100 |  | > 100 | > 100
Nc1[nH]nc2nc3ccc(C(F)(F)F)cc3nc12 | 99.2 | 97.3 |  | 37.9 | 36.8 | 57.2 | > 100 |  | > 100 | > 100 | > 100 | 69.1 | > 100 | > 100 | > 100 | 57.1 | 38.8
CN1[C@@H]2C[C@@H](OC(=O)[C@H](CO)c3ccccc3)C[C@H]1[C@@H]1O[C@@H]12 | > 100 |  | > 100 | > 100 | > 100 | > 100 | > 100 |  | > 100 | > 100 | > 100 | > 100 | > 100 |  | > 100 | > 100 | > 100
CC1=NNC(=O)C1C(CC(=O)c1c[nH]c2ccccc12)C(=O)O (configuration not stated) | > 100 | > 100 | > 100 | > 100 | > 100 | > 100 | > 100 | > 100 | > 100 | > 100 | > 100 | > 100 | > 100 | > 100 |  | > 100 | > 100
CN1COCc2c1ccc1cc3ccc4c(c3nc21)COCN4S(C)(=O)=O | > 100 | > 100 | > 100 | > 100 | > 100 | > 100 | > 100 |  | > 100 | > 100 | > 100 | > 100 | > 100 | > 100 | > 100 | > 100 | > 100
Cc1ccc(S(=O)(=O)NC(=O)N[C@@H](Cc2cnc[nH]2)C(=O)O)cc1 | > 100 | > 100 |  | > 100 | > 100 | > 100 | > 100 | > 100 | > 100 | > 100 | > 100 | > 100 |  | > 100 | > 100 | > 100 | > 100
Cc1cc(NCc2ccccc2)c2ccccc2[n+]1CCCCCCCCCC[n+]1c(C)cc(NCc2ccccc2)c2ccccc21 | 12.7 | 2.49 |  |  | 10.9 | 1.86 | 1.45 | 1.13 | 0.796 | 1.08 | 5.16 | 0.567 | 5.48 | > 100 | > 100 | 12.9 | 44.3
On1c(-c2ccccc2)nc2ccccc2c1=S | > 100 | > 100 | > 100 | > 100 | > 100 | > 100 | > 100 | > 100 | > 100 | > 100 | 74.2 | > 100 | > 100 | > 100 | > 100 | > 100 | 
CC(C(O)Cc1ccccc1)N(C)N=Nc1ccc([N+](=O)[O-])cc1 (configuration not stated) | 76.1 | 46.2 | 36.3 | > 100 | 85.5 | 48.1 | 30.2 |  | 53.2 | 44.9 | 40.5 | 37.6 | 51.8 | > 100 | > 100 | 23.7 | 
Nc1ccc(S(=O)(=O)Nc2nccs2)cc1 | > 100 | > 100 | > 100 | > 100 | > 100 | > 100 | > 100 | > 100 | > 100 | > 100 | > 100 | > 100 |  | > 100 | > 100 | > 100 | > 100
